Reference: patent US9108930B2, “N1- and N2-carbamoyl-1,2,3-triazole serine hydrolase inhibitors and methods” (The Scripps Research Institute, priority 2011, dated 2015)
“And” between values parts separate entries of the source, which are not always exact repeats. Equal values may be shown once.

Experiments:
APEH [1] = target: T1, APEH (Mus musculus, UniProt Q8R146); assay: Gel-based competitive ABPP, mouse T-cell proteome in vitro; type: biochemical
T1 sequence (Q8R146 1-732): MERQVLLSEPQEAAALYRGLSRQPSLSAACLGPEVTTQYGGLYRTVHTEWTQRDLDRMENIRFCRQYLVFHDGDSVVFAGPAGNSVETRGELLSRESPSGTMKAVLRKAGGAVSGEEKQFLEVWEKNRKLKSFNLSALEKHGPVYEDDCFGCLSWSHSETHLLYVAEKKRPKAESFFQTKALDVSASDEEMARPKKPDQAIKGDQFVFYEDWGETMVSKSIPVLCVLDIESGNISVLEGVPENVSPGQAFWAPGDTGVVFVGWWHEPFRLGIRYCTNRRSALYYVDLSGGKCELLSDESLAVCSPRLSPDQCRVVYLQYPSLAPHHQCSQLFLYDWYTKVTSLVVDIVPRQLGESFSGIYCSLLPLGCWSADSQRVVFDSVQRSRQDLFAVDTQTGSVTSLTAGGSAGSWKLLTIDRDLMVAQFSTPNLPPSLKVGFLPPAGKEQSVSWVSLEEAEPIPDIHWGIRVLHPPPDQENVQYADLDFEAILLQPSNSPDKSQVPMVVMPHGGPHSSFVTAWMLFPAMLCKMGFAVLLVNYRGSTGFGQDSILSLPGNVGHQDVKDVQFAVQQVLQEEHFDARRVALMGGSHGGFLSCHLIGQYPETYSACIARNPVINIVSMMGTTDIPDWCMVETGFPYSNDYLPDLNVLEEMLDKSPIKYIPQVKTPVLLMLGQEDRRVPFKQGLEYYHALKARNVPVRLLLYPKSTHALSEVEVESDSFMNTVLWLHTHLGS
Experimental: The carbamoyl triazole regioisomers were separated by gel chromatography and used for subsequent experiments. […] The compounds were screened at concentrations of 10 and 100 nM in mouse T-cell proteomes (FIG. 3e and FIG. 12).
Gel-based competitive ABPP experiments were performed as described previously. For competitive ABPP with FP-rhodamine, proteomes (1 mg/mL in PBS) were treated with FP-rhodamine (2 μM final concentration) in a […] total reaction volume. After 30 minutes at 25° C., the reactions were quenched with 2×SDS-PAGE loading buffer.
Proteomes were incubated with inhibitors for 30 minutes at 37° C. (in vitro) or for 4 h at 37° C. (in situ) at the indicated concentrations (n=3) prior to FP-rhodamine labeling. After SDS-PAGE and in-gel visualization, the percentage enzymatic activity remaining was determined by measuring the integrated optical intensity of the bands using IMAGER® software. IC50 values were determined from a dose-response curve generated using PRISM® software (GraphPad).

APEH [2] = target: T1, APEH; assay: In vivo APEH inhibition, gel-based competitive ABPP of brain and heart; settings: i.p., 4 h; doses 0.2-1.6 mg/kg
Experimental: The potency and selectivity of 1,2,3-triazole ureas in vivo also was investigated. Mice were treated with the APEH inhibitor AA74-1 at various doses (0.2-1.6 mg/kg; PEG300 or 18:1:1 saline/ethanol/emulphor intraperitoneally) and sacrificed after 4 h. Brains and hearts were removed, homogenized, and analyzed by gel-based competitive ABPP. […] Finally, the possibility of extending ABPP-SILAC for the characterization of inhibitor selectivity in vivo was explored by taking advantage of recently described protocols for stable isotope labeling in mammals (SILAM). In this approach, brain tissues from vehicle- and AA74-1-treated mice were separately mixed with equivalent amounts of brain tissue from ‘heavy’ amino acid-fed mice, and the samples were then labeled with FP-biotin, enriched by avidin chromatography, analyzed by LC-MS, and SH activities quantified by measuring the ratio-of-ratios for observed peptide signals. […] The ratio-of-ratio signals for APEH indicated greater than 90% inhibition of this enzyme in AA74-1-treated animals (FIG. 5b, top), consistent with average spectral count values (14 and 1 spectral counts for APEH in vehicle-treated versus AA74-1-treated mice, respectively; FIG. 5b, bottom). […] ACHE, an enzyme that is targeted by other reported NHU inhibitors, was not inhibited by AA74-1 in either mouse brain (FIG. 5b) or transfected cell (FIG. 16) proteomes. […]

APEH [3] = target: T1, APEH; assay: Fluorogenic APEH substrate assay on brain proteomes of treated mice; type: in vivo; settings: 0.4 mg/kg; brain proteome
Experimental: APEH activity assay was performed using fluorogenic substrate N-Acetyl-L-alanine p-nitroanilide.
Soluble brain proteomes (100 μL of 1 mg/mL protein) from AA74-1 (or vehicle)-injected mice were treated in a 96-well plate with N-acetyl-L-alanine 4-nitroanilide (100 μM final concentration) and the samples were incubated for 2 h at 37° C. Relative absorbance was measured with a plate reader at […]. Inhibition curves were generated using PRISM® software (GraphPad). Calculated values represent means±s.e.m for three independent experiments.

[4] = target: T2, acetylcholinesterase (ACHE) (Mus musculus, UniProt P21836); assay: Competitive ABPP of ACHE recombinantly expressed in COS-7 cells; type: biochemical; settings: 30 minutes at 37° C.
T2 construct: full-length cDNAs encoding mouse serine hydrolases were either transfected directly; host or cells: COS-7 cells
T2 sequence (P21836 32-614): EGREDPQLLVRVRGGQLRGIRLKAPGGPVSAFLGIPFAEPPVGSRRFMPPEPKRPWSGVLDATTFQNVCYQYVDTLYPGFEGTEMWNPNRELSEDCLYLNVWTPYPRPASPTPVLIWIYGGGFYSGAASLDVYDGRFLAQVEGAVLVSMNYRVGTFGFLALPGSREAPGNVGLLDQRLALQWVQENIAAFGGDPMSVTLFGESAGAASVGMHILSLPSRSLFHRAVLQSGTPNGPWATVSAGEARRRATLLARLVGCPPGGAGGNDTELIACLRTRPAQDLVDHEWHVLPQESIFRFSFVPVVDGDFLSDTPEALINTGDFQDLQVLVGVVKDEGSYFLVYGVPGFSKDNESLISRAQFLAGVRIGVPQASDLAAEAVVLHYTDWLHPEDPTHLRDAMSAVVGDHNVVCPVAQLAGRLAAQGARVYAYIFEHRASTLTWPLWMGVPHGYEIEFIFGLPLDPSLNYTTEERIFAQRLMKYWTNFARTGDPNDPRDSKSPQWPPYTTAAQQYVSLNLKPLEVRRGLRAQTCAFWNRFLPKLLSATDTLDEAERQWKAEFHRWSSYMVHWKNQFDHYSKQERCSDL
Experimental: ACHE was recombinantly expressed in COS-7 cells. Whole cell proteome was mixed 1:1 with soluble mouse brain proteome and treated with DMSO or AA74-1 in vitro at indicated concentrations for 30 minutes at 37° C., after which the samples were analyzed by competitive ABPP. Note that ACHE migrates as multiple bands by SDS-PAGE due to heterogeneous glycosylation. ACHE inhibition in vivo was not observed, as reflected by the equal signals for this enzyme in competitive ABPP results shown in FIG. 5b.
Briefly, full-length cDNAs encoding mouse serine hydrolases were either transfected directly (if available in a eukaryotic expression vector) or subcloned into pcDNA3 (Invitrogen). COS-7 or HEK-293 cells were grown to about 70% confluence in 10 cm dishes in complete medium (DMEM with L-glutamine, nonessential amino acids, sodium pyruvate, and FCS) at 37° C. and 5% CO2. The cells were transiently transfected by using the appropriate cDNA or empty vector control (“mock”) and the FUGENE® 6 (Roche Applied Science) transfection reagents following the manufacturers' protocols. After 48 hrs, the cells were washed twice with phosphate-buffered saline (PBS), and collected by scraping.

## CC(C)CC(O)(CC(C)C)c1cnn(C(=O)N2CCCC2)n1 [AA74-1]
APEH [1]; 10 nM
  inhibition of APEH: completely inhibited APEH
APEH [1]; IC50 for APEH, in vitro, 30 minutes at 37° C., mouse
  IC50: 5 nM and 3 nM
APEH [2]
  dose (as low as) giving complete inhibition of APEH in brain and heart: 0.4 mg/kg
APEH [3]
  APEH inhibition by substrate assay: Complete inhibition of APEH
[4]
  ACHE inhibition in transfected cell proteome: not inhibited
